Measured values from the NIST ThermoML archive (doi:10.1016/j.jct.2010.05.002).
“And” between values parts separate entries of the source, which are not always exact repeats. Equal values may be shown once.

Assay: molar heat capacity at constant pressure
Conditions: 101.33 kPa, Vacuum adiabatic calorimetry

Cc1ccc(-c2ccccc2)cc1 [4-methylbiphenyl]
Conditions	molar heat capacity at constant pressure
200.03 K, Crystal 2	158.25 J/K/mol
201.21 K, Crystal 2	159.08 J/K/mol
202.67 K, Crystal 2	160.39 J/K/mol
204.13 K, Crystal 2	161.16 J/K/mol
205.59 K, Crystal 2	161.88 J/K/mol
207.05 K, Crystal 2	163.01 J/K/mol
208.5 K, Crystal 2	164.47 J/K/mol
209.95 K, Crystal 2	165.42 J/K/mol
211.41 K, Crystal 2	166.95 J/K/mol
212.86 K, Crystal 2	167.72 J/K/mol
214.31 K, Crystal 2	168.81 J/K/mol
215.75 K, Crystal 2	169.75 J/K/mol
217.19 K, Crystal 2	170.91 J/K/mol
218.63 K, Crystal 2	172.34 J/K/mol
220.07 K, Crystal 2	173.54 J/K/mol
221.51 K, Crystal 2	174.81 J/K/mol
224.33 K, Crystal 2	177.09 J/K/mol
225.77 K, Crystal 2	178.63 J/K/mol
227.21 K, Crystal 2	179.26 J/K/mol
228.64 K, Crystal 2	180.46 J/K/mol
230.07 K, Crystal 2	181.65 J/K/mol
231.5 K, Crystal 2	183.05 J/K/mol
232.92 K, Crystal 2	183.59 J/K/mol
234.35 K, Crystal 2	184.76 J/K/mol
235.77 K, Crystal 2	186 J/K/mol
237.2 K, Crystal 2	186.68 J/K/mol
238.62 K, Crystal 2	188.83 J/K/mol
240.04 K, Crystal 2	189.96 J/K/mol
241.46 K, Crystal 2	190.95 J/K/mol
242.88 K, Crystal 2	191.92 J/K/mol
245.71 K, Crystal 2	194.12 J/K/mol
247.06 K, Crystal 2	195.69 J/K/mol
248.47 K, Crystal 2	196.82 J/K/mol
249.87 K, Crystal 2	197.8 J/K/mol
251.28 K, Crystal 2	198.95 J/K/mol
252.68 K, Crystal 2	199.51 J/K/mol
254.07 K, Crystal 2	203.15 J/K/mol
255.46 K, Crystal 2	205.87 J/K/mol
256.86 K, Crystal 2	204.64 J/K/mol
258.26 K, Crystal 2	207.95 J/K/mol
259.65 K, Crystal 2	209.9 J/K/mol
261.05 K, Crystal 2	211.67 J/K/mol
262.45 K, Crystal 2	213.5 J/K/mol
263.84 K, Crystal 2	216.69 J/K/mol
265.26 K, Crystal 2	218.04 J/K/mol
265.74 K, Crystal 2	214.98 J/K/mol
266.62 K, Crystal 2	215.48 J/K/mol
267.35 K, Crystal 2	216.35 J/K/mol
268.06 K, Crystal 2	216.34 J/K/mol
268.77 K, Crystal 2	218.41 J/K/mol
269.46 K, Crystal 2	217.65 J/K/mol
270.14 K, Crystal 2	220.43 J/K/mol
270.81 K, Crystal 2	221.73 J/K/mol
271.48 K, Crystal 2	224.8 J/K/mol
272.13 K, Crystal 2	226.98 J/K/mol
272.79 K, Crystal 2	228.68 J/K/mol
273.44 K, Crystal 2	230.85 J/K/mol
274.09 K, Crystal 2	231.46 J/K/mol
274.73 K, Crystal 2	233.58 J/K/mol
275.38 K, Crystal 2	235.91 J/K/mol
276.02 K, Crystal 2	236.58 J/K/mol
276.54 K, Crystal 2	238.77 J/K/mol
277.18 K, Crystal 2	240.39 J/K/mol
277.82 K, Crystal 2	243.02 J/K/mol
278.45 K, Crystal 2	244.38 J/K/mol
279.09 K, Crystal 2	245.39 J/K/mol
279.72 K, Crystal 2	247.06 J/K/mol
280.35 K, Crystal 2	249.06 J/K/mol
280.98 K, Crystal 2	250.28 J/K/mol
281.61 K, Crystal 2	250.82 J/K/mol
282.22 K, Crystal 2	253.9 J/K/mol
282.84 K, Crystal 2	255.25 J/K/mol
283.47 K, Crystal 2	256.25 J/K/mol
284.09 K, Crystal 2	257.26 J/K/mol
284.71 K, Crystal 2	258.2 J/K/mol
285.32 K, Crystal 2	261 J/K/mol
285.94 K, Crystal 2	262.67 J/K/mol
286.41 K, Crystal 2	265.19 J/K/mol
287.03 K, Crystal 2	266.14 J/K/mol
287.64 K, Crystal 2	267.86 J/K/mol
288.24 K, Crystal 2	270.21 J/K/mol
289.45 K, Crystal 2	271.63 J/K/mol
290.05 K, Crystal 2	274.89 J/K/mol
290.65 K, Crystal 2	278.67 J/K/mol
291.25 K, Crystal 2	281.37 J/K/mol
291.85 K, Crystal 2	283.3 J/K/mol
292.44 K, Crystal 2	287.63 J/K/mol
293.04 K, Crystal 2	291.45 J/K/mol
293.63 K, Crystal 2	298.7 J/K/mol
294.21 K, Crystal 2	301.08 J/K/mol
294.8 K, Crystal 2	306.74 J/K/mol
295.38 K, Crystal 2	315.73 J/K/mol
295.81 K, Crystal 2	323.56 J/K/mol
296.38 K, Crystal 2	356.89 J/K/mol
296.78 K, Crystal 2	604.38 J/K/mol
298.45 K, Crystal 1	252.48 J/K/mol
299.16 K, Crystal 1	242.36 J/K/mol
299.72 K, Crystal 1	239.35 J/K/mol
300.27 K, Crystal 1	238.79 J/K/mol
300.79 K, Crystal 1	244.43 J/K/mol
301.28 K, Crystal 1	240.52 J/K/mol
301.77 K, Crystal 1	242.22 J/K/mol
302.25 K, Crystal 1	243.96 J/K/mol
302.73 K, Crystal 1	242.88 J/K/mol
303.21 K, Crystal 1	243.63 J/K/mol
303.43 K, Crystal 1	242.23 J/K/mol
303.9 K, Crystal 1	242.44 J/K/mol
304.37 K, Crystal 1	241.56 J/K/mol
304.84 K, Crystal 1	243.77 J/K/mol
305.31 K, Crystal 1	244.44 J/K/mol
305.78 K, Crystal 1	244.15 J/K/mol
306.24 K, Crystal 1	244.23 J/K/mol
306.7 K, Crystal 1	245.51 J/K/mol
307.16 K, Crystal 1	246.05 J/K/mol
307.62 K, Crystal 1	246.17 J/K/mol
308.08 K, Crystal 1	246.5 J/K/mol
308.53 K, Crystal 1	247 J/K/mol
308.98 K, Crystal 1	247.25 J/K/mol
309.43 K, Crystal 1	248.47 J/K/mol
309.88 K, Crystal 1	249.54 J/K/mol
310.32 K, Crystal 1	249.25 J/K/mol
310.48 K, Crystal 1	249.45 J/K/mol
310.92 K, Crystal 1	251.3 J/K/mol
311.36 K, Crystal 1	251.5 J/K/mol
312.31 K, Crystal 1	256.21 J/K/mol
313.97 K, Crystal 1	264.83 J/K/mol
314.78 K, Crystal 1	273.5 J/K/mol
315.57 K, Crystal 1	291.72 J/K/mol
321.28 K, Liquid	289.67 J/K/mol
322.04 K, Liquid	290.27 J/K/mol
322.79 K, Liquid	290.67 J/K/mol
323.53 K, Liquid	290.73 J/K/mol
324.28 K, Liquid	291.55 J/K/mol
325.01 K, Liquid	291.28 J/K/mol
325.74 K, Liquid	291.46 J/K/mol
326.47 K, Liquid	293.2 J/K/mol
327.19 K, Liquid	292.01 J/K/mol
327.91 K, Liquid	293.22 J/K/mol
328.27 K, Liquid	292.87 J/K/mol
328.98 K, Liquid	293.44 J/K/mol
329.68 K, Liquid	293.4 J/K/mol
330.38 K, Liquid	294.27 J/K/mol
331.07 K, Liquid	293.42 J/K/mol
331.76 K, Liquid	294.54 J/K/mol
332.45 K, Liquid	294.83 J/K/mol
333.13 K, Liquid	295.75 J/K/mol
333.8 K, Liquid	295.68 J/K/mol
334.47 K, Liquid	295.42 J/K/mol
336.41 K, Liquid	298.11 J/K/mol
337.06 K, Liquid	298.19 J/K/mol
337.7 K, Liquid	298.22 J/K/mol
338.34 K, Liquid	298.05 J/K/mol
338.57 K, Liquid	298.82 J/K/mol
339.03 K, Liquid	300.03 J/K/mol
339.2 K, Liquid	299.1 J/K/mol
340.45 K, Liquid	299.61 J/K/mol
341.07 K, Liquid	299.94 J/K/mol
341.68 K, Liquid	301.45 J/K/mol
342.29 K, Liquid	300.21 J/K/mol
342.89 K, Liquid	301.42 J/K/mol
343.49 K, Liquid	302.55 J/K/mol
344.08 K, Liquid	301.94 J/K/mol
344.67 K, Liquid	303 J/K/mol
345.25 K, Liquid	303.08 J/K/mol
346.41 K, Liquid	304.11 J/K/mol
346.98 K, Liquid	304.03 J/K/mol
347.55 K, Liquid	304.56 J/K/mol
347.66 K, Liquid	303.66 J/K/mol
348.78 K, Liquid	306.1 J/K/mol
349.3 K, Liquid	305.23 J/K/mol
349.88 K, Liquid	305.3 J/K/mol
350.42 K, Liquid	305.41 J/K/mol
350.96 K, Liquid	306.68 J/K/mol
351.49 K, Liquid	306.74 J/K/mol
352.02 K, Liquid	307.44 J/K/mol
352.55 K, Liquid	307.72 J/K/mol
353.07 K, Liquid	307.31 J/K/mol
353.59 K, Liquid	308.24 J/K/mol
354.1 K, Liquid	307.67 J/K/mol
354.61 K, Liquid	308.41 J/K/mol
355.12 K, Liquid	308.12 J/K/mol
355.62 K, Liquid	308.6 J/K/mol and 307.85 J/K/mol
356.11 K, Liquid	307.9 J/K/mol
356.61 K, Liquid	309.76 J/K/mol
357.09 K, Liquid	308.25 J/K/mol
357.58 K, Liquid	309.03 J/K/mol
358.05 K, Liquid	309.85 J/K/mol
358.53 K, Liquid	309.78 J/K/mol
359 K, Liquid	309.73 J/K/mol
359.47 K, Liquid	309.75 J/K/mol
359.53 K, Liquid	309.84 J/K/mol
360.39 K, Liquid	310.32 J/K/mol
360.84 K, Liquid	311.4 J/K/mol
361.29 K, Liquid	311.64 J/K/mol
361.74 K, Liquid	310.99 J/K/mol
362.18 K, Liquid	311.55 J/K/mol
362.52 K, Liquid	311.51 J/K/mol
362.62 K, Liquid	311.89 J/K/mol
362.96 K, Liquid	311.52 J/K/mol
363.39 K, Liquid	310.96 J/K/mol
365.49 K, Liquid	313.17 J/K/mol
365.9 K, Liquid	312.29 J/K/mol
366.3 K, Liquid	313.49 J/K/mol
366.7 K, Liquid	314.04 J/K/mol
367.1 K, Liquid	313.11 J/K/mol
367.49 K, Liquid	314.44 J/K/mol
367.88 K, Liquid	314.05 J/K/mol
368.27 K, Liquid	313.75 J/K/mol
368.45 K, Liquid	313.66 J/K/mol
368.65 K, Liquid	313.35 J/K/mol
368.82 K, Liquid	312.67 J/K/mol
369.2 K, Liquid	314.01 J/K/mol
369.57 K, Liquid	314.85 J/K/mol
369.94 K, Liquid	314.67 J/K/mol
370.3 K, Liquid	314.64 J/K/mol
370.66 K, Liquid	315.15 J/K/mol
371.02 K, Liquid	314.85 J/K/mol
371.37 K, Liquid	314.45 J/K/mol
371.71 K, Liquid	316.2 J/K/mol
372.06 K, Liquid	315.57 J/K/mol
372.39 K, Liquid	315.1 J/K/mol
